Data reported in patent US8420606B2, “Method of utilizing physiological activity of rare saccharide and composition containing rare saccharide” (priority 2002, dated 2013).
“Also recorded” adds a separate entry of the source.

Experiments:
[1] = test system: ovary cancer cells (OVCAR3); assay: proliferation of cultured cells, MTT method, OVCAR3; format: cell-based; details: for proliferation of OVCAR3 cells (cell number over time): saccharide 50 mM, 4 to 5 days, MTT
Experimental: (§1) Various kinds of rare saccharides were added at a concentration of 50 mM to culture media under the following conditions, and an influence of each rare saccharide upon the progress of proliferation of cancer cell strains was examined.
(§2) (1) Target cells to which the rare saccharides were added: Hepatic cancer cells (HepG2), uterine cancer cells (He1a), ovary cancer cells (OVCAR3), and skin keratinocyte (HaCaT) were selected as target cells to which the rare saccharides were added.
(§3) (2) Rare saccharides added: In addition to D-allose, glucose and D-altros as rare saccharides belonging to ketose were added, as other comparative saccharides, to the addition target cells. Also, D-fructose was employed as a control.
(§4) (3) Experiment method: A number 3,000-5,000 of addition target cells per type were inoculated into a multi-well plastic dish (hereinafter referred to as a “well”) having 96 wells, and were cultured for 4 to 5 days in a culture medium supplemented with 5 to 10% of Fetal Bovine Serum (FBS) depending on the cell types. D-Allose, D-glucose and D-altros were each added at concentration of 50 mM to the addition target cells per type. Similarly, D-fructose as a control was added at a concentration of 50 mM. To examine the influence upon the cell proliferation, the cell number was measured in units of 24 hours by using the MTT method described below.
(1) Preparation of reagents: A predetermined amount of MTT (tetrazolium salt) was dissolved in PBS(−) sterilized in an autoclave to obtain an MTT solution through filtering and sterilization. An acidic solution was prepared by adding 50 mL of N,N-dimethylformaldehyde and water to a predetermined amount of (20 g) of SDS, thereby obtaining a 100 mL of solution. About […] of 1N hydrochloric acid was added to the solution for adjustment of a pH-value to 4.7. The solution was preserved at room temperature and warmed up to 37° C. just before the use.
(2) Test method: The cells were treated with TEP to prepare a cell suspension liquid. This cell suspension liquid was pipetted in a predetermined cell-density (300 to 52000 cells/well) to each well (96-well plate: 0.1 mL of culture medium per well). The saccharide as a drug was added in a predetermined amount to each well, followed by cultivation for a whole day and night in a CO2 incubator. Then, 0.5 mg/mL of the MTT solution was added and the resulting culture was incubated for 4 hours in the incubator. Thereafter, the culture medium was completely removed. Then, in a room kept at 37° C., an acid solution was added in amount of 0.1 mL/well. The well plate was placed on a micro-plate mixer and shaken at 37° C. for 20 minutes to dissolve a colored substance (namely, to dissolve “formazan” in the acid solution). The absorbance of the liquid was measured at a wavelength of 570 to 600 nm by using a spectrophotometer. After dissolving the colored substance (formazan) in the acid solution, the absorbance can be measured directly by a plate reader.
(1) Experiment method: The ovary cancer cells (OVCAR3) were selected as target cells to which a rare saccharide was added, and D-allose as the saccharide was added at concentrations of 1 mM, 5 mM, 10 mM, 20 mM, 50 mM and 100 mM. The experimental conditions, such as the method of culturing the ovary cancer cells (OVCAR3) and the method of measuring the cell number (MTT method), were the same as those in Example 1.

[2] = test system: Hepatic cancer cells (HepG2); assay: proliferation of cultured cells, MTT method, HepG2; format: cell-based, human; details: saccharide 50 mM, 4 to 5 days
Experimental: as §1, §2, §3, §4
(1) Preparation of reagents: A predetermined amount of MTT (tetrazolium salt) was dissolved in PBS(−) sterilized in an autoclave to obtain an MTT solution through filtering and sterilization. An acidic solution was prepared by adding 50 mL of N,N-dimethylformaldehyde and water to a predetermined amount of (20 g) of SDS, thereby obtaining a 100 mL of solution. […]
(2) Test method: The cells were treated with TEP to prepare a cell suspension liquid. […] The absorbance of the liquid was measured at a wavelength of 570 to 600 nm by using a spectrophotometer. After dissolving the colored substance (formazan) in the acid solution, the absorbance can be measured directly by a plate reader.

Daudi = assay: blood-system cancer cell strain proliferation, Coulter Counter, Daudi; format: cell-based; details: for Daudi cell number relative to glucose: seventh day, glucose = 100%; for Daudi-cell proliferation inhibitory effect: 0.05-50 mM, 7 days, D-glucose control
Experimental: (2) Method: Total 6 kinds of cell strains, i.e., Myeloid (HL-60, THP-1, KG-1), T-cell (MT-2), and B-Cell (Daudi, KS-1), and 3 kinds of rare saccharides (i.e., D-psicose, D-altrose, and D-allose), were employed. The culture medium and the cells were prepared to be 1 mL in total and 1×10^5 in number, respectively. Then, the cell number at each of fourth day and seventh day was counted by using a Coulter Counter. Each rare saccharide was added at concentrations of 0.05, 0.5, 5 and 50 mM, while D-glucose was used as a control.
Culture Medium: FBS 10% added RPMI1460
Cultivation Conditions: 37° C., 5% CO2
Cultivation Vessel: FALCON, MULTIWELL, 12 wells
Number of Cultivation Days: 7 days
Saccharides Concentration: 0.05, 0.5, 5, 50 mM

[3] = test system: Pancreas β-cell strains INS-1; assay: insulin secretion from pancreas β-cell strain, ELISA; format: cell-based, rat; details: for concentration at which insulin secretion stimulus reached a plateau / insulin secretion into culture medium: saccharide alone; for insulin secretion into culture medium: 2.8-16.7 mM
Experimental: Pancreas β-cell strains INS-1 derived from insulinoma were cultured under the culture medium condition of (DMEM +10% FBS) in accordance with the ordinary method. The INS-1 cells at density of about 70% were pipitted into a 96-well culture dish, and the following experiments were performed. D-psicose was used as the ketohexose belonging to the rare saccharides.
After cultivation for 24 hours with the glucose concentration in the culture medium set to 2.8 mM, 5.6 mM, 11.2 mM and 16.7 mM, the insulin concentration in the culture medium was measured by using an ELISA (insulin kit).
By using the ELISA method, the insulin concentration in the culture medium was measured while the D-psicose concentration in the culture medium was changed to 0 mM, 2.8 mM, 5.6 mM, 11.2 mM and 16.7 mM.

Row | Compound | concentration at which the cancer-cell proliferation inhibitory effect was first found ([1]; OVCAR3, 1, 5, 10, 20, 50, 100 mM tested, 10% fetal bovine serum) [mM] | dead cells (microscope, trypan blue-exclusion assay) ([1]; OVCAR3 cells to which D-allose was applied) | proliferation of OVCAR3 cells (cell number over time) [1] | proliferation of HepG2 cells (cell number over time) [2] | Daudi cell number relative to glucose (Daudi; 0.05 mM) [%] | Daudi cell number relative to glucose (Daudi; 0.5 mM) [%] | Daudi cell number relative to glucose (Daudi; 5 mM) [%] | Daudi-cell proliferation inhibitory effect (Daudi) | Daudi-cell proliferation inhibitory effect (Daudi; listed as allose) | Daudi cell number relative to glucose (Daudi; 50 mM) [%] | concentration at which insulin secretion stimulus reached a plateau [3] [mM] | insulin secretion into culture medium ([3]; 24 hours) | insulin secretion with D-psicose added to glucose ([3]; glucose fixed at 11.2 mM, psicose 2.8-16.7 mM, 24 hours)
1 | O=C[C@H](O)[C@H](O)[C@H](O)[C@H](O)CO [D-allose] | 10 | dead cells hardly existed | strongly inhibited proliferation; also recorded: has a proliferation inhibitory effect | strongly inhibited proliferation; also recorded: has a proliferation inhibitory effect | 85.9 | 80.6 | 62.2 | having the inhibitory effect | showed an inhibitory effect | 3.9 |  |  | 
2 | O=C[C@H](O)[C@@H](O)[C@H](O)[C@H](O)CO [D-glucose, reference compound] |  |  | acted so as to promote the proliferation of the cancer cells | hardly found |  |  |  |  |  |  | 11.2 | the insulin secretion from the cells was stimulated | 
3 | O=C(CO)[C@H](O)[C@H](O)[C@H](O)CO [D-psicose] |  |  |  |  |  |  |  | showed no effect |  |  | 11.2 | insulin was secreted depending on the D-psicose concentration; also recorded: a reaction of secreting insulin depending on the concentration of D-psicose was found | further stimulated in an additive way; also recorded: further promoted
